Molecules are shown by their SMILES. Values after ≈ are worked out from the molar mass of the structure shown. Where a name gives a salt, the structure may show the parent alone.

One series has as its target T1, collagenase (MMP-1) (Homo sapiens, UniProt P03956).
T1 construct: endogenous in cells; host or cells: human fibroblast
T1 sequence (P03956 100-469): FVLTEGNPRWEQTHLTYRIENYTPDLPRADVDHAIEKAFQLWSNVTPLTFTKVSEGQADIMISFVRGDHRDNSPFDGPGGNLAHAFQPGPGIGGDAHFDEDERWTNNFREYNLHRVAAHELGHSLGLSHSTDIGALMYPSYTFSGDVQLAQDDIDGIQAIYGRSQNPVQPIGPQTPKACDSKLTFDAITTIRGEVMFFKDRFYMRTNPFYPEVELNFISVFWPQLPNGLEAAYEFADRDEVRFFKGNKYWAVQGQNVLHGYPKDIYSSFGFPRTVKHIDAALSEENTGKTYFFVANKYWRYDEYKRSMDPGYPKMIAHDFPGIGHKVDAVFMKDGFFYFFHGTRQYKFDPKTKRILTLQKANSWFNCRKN
The experiment in a line: Assay for Collagenase Inhibitory Activity (MMP-1). It counts as biochemical. The conditions noted are these: fluorescein-labeled bovine type I collagen substrate, 35° C., 2 hours, pH 7.5; read-out: Inhibitory activities for matrix metalloproeinases (MMPs), MMP-1, IC50 value. As to the method: (§1) Inhibitory activities of the compounds represented by the general formula (I) according to the invention for collagenase (metalloproteinase concerned with a tissue destruction) derived from human fibroblast were tested by the method of Y. Murawaki et al., [Journal of Hepatology, 18, p. 328-334 (1993)], and their inhibitory activities for stromelysin derived from human fibroblast were measured by the method of S. S. Twining et al., [Anal. Biochem., 143, p. 30 (1984)].
Inhibitory activities for collagenase (MMP-1) of the compounds of Examples and comparative compounds were measured by the method of Y. Murawaki et al., [Journal of Hepatology, 18, p. 328-334 (1993)]. The latent procollagenase was activated by incubating with mercury aminophenylacetate (2 mM) at 35° C. for 2 hours. The assay was done by using bovine type I collagen labeled with fluorescein as a substrate. The activated collagenase was added to the substrate solution (0.5 mg/ml) in Tris HCl buffer (50 mM, pH 7.5) containing sodium chloride (0.4 M) and calcium chloride (10 mM). The obtained solution was incubated at 35° C. for 2 hours. The enzyme digestion was stopped by the addition of o-phenanthroline (80 mM). The mixture was added with pig spleen elastase solution (25 μg/ml) in the above Tris HCl buffer, and incubated 37° C. for 10 min. The obtained solution was added with 70% ethanol and Tris HCl buffer (170 mM, pH 9.5) containing sodium chloride (0.61 M), whereby the indigested substrate was sedimented by centrifuging at 3000 g for 20 min. The supernatant was taken, and its intensity of fluorescence was determined by the excitation wavelength (495 nm) and the measured wavelength (520 nm), and the inhibitory activity was obtained. IC50 is a concentration of a compound assayed in the digesting enzyme, whereby the splitting of the substrate was decreased to 50% compared with that attained by the enzyme alone.

Another series has as its target T2, stromelysin (MMP-3) (Homo sapiens, UniProt P08254).
T2 construct: endogenous in cells; host or cells: human fibroblast
The experiment in a line: Assay for Stromelysin Inhibitory Activity (MMP-3). It counts as biochemical. Particulars: fluorescein-labeled casein substrate, 37° C., 2 hours, pH 7.8; read-out: Inhibitory activities for matrix metalloproeinases (MMPs), MMP-3, IC50 value. As for the experimental part: as §1
Inhibitory activities for stromelysin (MMP-3) of the compounds of Examples and comparative compounds were measured by the method of S. S. Twining et al., [Anal. Biochem., 143, p. 30 (1984)]. The latent prostromelysin was incubated with human plasmin (20 μg/ml) for the activation at 37° C. for 2 hours, and then the incubate was added with diisopropyl fluorophosphate solution (2.8 mg/ml) to stop the reaction. The assay was done by using casein labeled with fluorescein as the substrate. The activated stromelysin was added to a substrate solution (1 mg/ml) in Tris HCl buffer (50 mM, pH 7.8) containing calcium chloride (10 mM). The obtained solution was incubated at37° C. for 2 hours. The enzyme digestion forthesubstrate was stopped by adding 5% trichloroacetic acid. The indigested substrate was sedimented by centrifuging at 3000 g for 20 min. The supernatant was taken and added with Tris HCl buffer (0.5 M, pH 8.5), whereby its intensity of fluorescence was determined by the excitation wavelength (495 nm) and the measured wavelength (520 nm), and the inhibitory activity was obtained. IC50 is a concentration of a compound assayed in the digesting enzyme, whereby the splitting of the substrate was decreased to 50% compared with that attained by the enzyme alone.

In the next series the target is T3, TNF-α converting enzyme (Homo sapiens, UniProt P78536).
T3 construct: Human monocyte derived leukemia cell-line U937; endogenous in cells; host or cells: U937 (PMA-differentiated, LPS-stimulated)
The experiment in a line: Assay for Suppression of TNF-α Production (LPS-stimulated U937 cells). It counts as cell-based. Particulars: U937 cells (PMA-differentiated), Lipopoplysaccaride 0.1 μg/ml, 37° C., 6 hours, TNF-α in supernatant; read-out: Inhibitory activities for TNF-α converting enzyme, IC50 value. As to the method:
Human monocyte derived leukemia cell-line U937 [5% bovine fetal serum (Men-eki Seibutsu Ken) was added to RPMI1640 (Nissui Seiyaku) and incubated in a 5% CO2 incubation chamber at 37° C., whereby 1×10^6 cells/1 ml were placed into each well of a multi-well plate and then incubated in presence of Phorbol 12-myristate 13-acetate (10^-7 M, Wako Junyaku) overnight and differentiated to macrophage like cells.] was added with Lipopoplysaccaride (0.1 μg/ml, Sigma) derived from E.coli 0127:B8 strain alone or together with a compound in Examples, and incubated in a 5% CO2 incubation chamber at 37° C. for 6 hours. After the incubation, the culture medium was taken and centrifuged at 3000 g for 10 min., whereby the supernatant was diluted with purified water forthe measurement using the TNF-α measurement kit (Genzyme) (Table 2).

A short description of series [1]: Measurement of Solubility in Water. It counts as physicochemical. Particulars: water, distilled water, 20±5° C., 30 min., checked by eye. As to the method: A compound of Examples or a comparative compound was added to distilled water and shaken vigorously at 20±5° C. for 30 seconds at 5 min. interval. After 30 min., it was checked by watching with eye whether the compound was dissolved or not.

T3 sequence (P78536 215-824): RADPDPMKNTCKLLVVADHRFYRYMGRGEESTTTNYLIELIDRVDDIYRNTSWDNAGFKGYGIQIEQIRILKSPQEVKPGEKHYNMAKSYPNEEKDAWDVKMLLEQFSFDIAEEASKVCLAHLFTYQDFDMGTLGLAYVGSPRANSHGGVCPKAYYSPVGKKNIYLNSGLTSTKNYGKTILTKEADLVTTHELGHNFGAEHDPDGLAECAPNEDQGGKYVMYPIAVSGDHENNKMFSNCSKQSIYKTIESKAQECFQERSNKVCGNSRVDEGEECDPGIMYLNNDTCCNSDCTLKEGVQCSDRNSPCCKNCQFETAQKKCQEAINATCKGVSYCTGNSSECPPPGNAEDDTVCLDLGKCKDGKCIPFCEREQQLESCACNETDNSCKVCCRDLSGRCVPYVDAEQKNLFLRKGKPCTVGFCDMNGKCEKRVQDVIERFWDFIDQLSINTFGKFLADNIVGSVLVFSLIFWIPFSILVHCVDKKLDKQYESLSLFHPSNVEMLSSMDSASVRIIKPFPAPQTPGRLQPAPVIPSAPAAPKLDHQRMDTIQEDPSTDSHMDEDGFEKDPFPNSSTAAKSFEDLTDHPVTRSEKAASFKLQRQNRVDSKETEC
T2 sequence (P08254 100-477): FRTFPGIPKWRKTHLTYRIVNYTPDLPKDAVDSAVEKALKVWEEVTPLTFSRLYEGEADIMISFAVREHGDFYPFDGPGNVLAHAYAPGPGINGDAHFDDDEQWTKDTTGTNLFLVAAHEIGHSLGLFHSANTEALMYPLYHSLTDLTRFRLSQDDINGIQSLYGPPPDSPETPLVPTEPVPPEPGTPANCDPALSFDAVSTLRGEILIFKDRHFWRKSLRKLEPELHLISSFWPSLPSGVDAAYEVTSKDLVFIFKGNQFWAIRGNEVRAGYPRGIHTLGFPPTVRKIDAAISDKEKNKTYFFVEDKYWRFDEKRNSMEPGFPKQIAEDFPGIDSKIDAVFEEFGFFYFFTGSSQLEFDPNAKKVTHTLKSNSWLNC

Take `CNC(=O)[C@H](Cc1ccc(NC(=N)N)cc1)NC(=O)[C@H](CC(C)C)C(CCCc1ccccc1)C(=O)NO` (single isomer, unassigned) [Example 8, N-[4-(N-Hydroxyamino)-2(R)-isobutyl-3(R or S)-(3-phenyltrimethylene)succinyl]-L-4'-guanidophenylalanine-N-methylamideMonoacetate]: the IC50 at collagenase (MMP-1) amounted to 6 nM; at stromelysin (MMP-3), 6 nM; at TNF-α converting enzyme, 98 nM. The compound also gave a solubility at 0.5 h in series [1] of 30 mg/mL (≈ 57.2 mM).
For the compound `CNC(=O)[C@H](Cc1ccc(S(=O)(=O)O)cc1)NC(=O)[C@H](CC(C)C)C(CCCc1ccccc1)C(=O)NO` (stereo partly drawn) [Example 4, N-[4-(N-Hydroxyamino)-2(R)-isobutyl-3(RS)-(3-phenyltrimethylene)succinyl]-L-4'-sulfophenylalanine-N-methylamide, Monosodium Salt], the IC50 at TNF-α converting enzyme is 510 nM. The compound further showed a solubility at 0.5 h in series [1] of 150 mg/mL.

The record behind these values is US6284914A, “Highly water-soluble metalloproteinase inhibitors” (Fuji Yakuhin Kogyo Kabushiki Kaisha, priority 1995, dated 2001).
